The record followed here is a melting point compilation (Tetko et al.).

The structures appear in SMILES notation.

Take `COC(=O)c1cccc(C#N)c1`: the melting point came out at 65 °C.

Compound `Clc1nccnc1Cl` gave a melting point of 22.5 to 24.5 °C. In the case of `Nc1ccc([N+](=O)[O-])cc1C(=O)O`, the melting point was 278 °C. The result for `CCOC=C(C#N)S(=O)(=O)c1ccc2ccccc2c1` reads 90 to 92.5 °C; that for `Clc1cccc2c1Oc1ccccc1O2`, 104 °C. Turning to `COC(=O)c1sc(SC)c(S(=O)(=O)C(C)C)c1Cl`, the melting point fell in the range of 141 to 144 °C. Then `Cc1cc(O)c(Cl)cc1Cl`, with 73 °C; and `O=S(=O)(Cl)c1cccc2ccccc12`, with 68 °C.

Regarding `CC(C)(C)OC(=O)N1CC(=O)CC1C(=O)O` (stereo unspecified), the melting point fell in the range of 155 to 156 °C.

For the compound `CC(=CC(=O)O)C1CCCCC1`, the melting point was 85.5 °C. The result for `Fc1cc(CBr)ccc1Cl` reads 32 °C; that for `CN(C)c1ccc(N=C(C#N)c2ccc(C(C#N)=Nc3ccc(N(C)C)cc3)cc2)cc1`, 240 °C; that for `c1ccc(-c2ccc3c4c(c5c(c3c2)CCCC5)CCCC4)cc1`, 136 °C. The result for `CC(=O)Oc1ccc(N=C2C=CC(=O)C=C2)cc1` reads 111 to 116 °C; that for `O=[N+]([O-])c1ccc(S(=O)(=O)OCc2ccccc2OS(=O)(=O)c2ccc([N+](=O)[O-])cc2)cc1`, 204 to 206 °C; that for `c1ccc2c(c1)-c1cc3ccccc3c3cc4ccccc4c-2c13`, 232 °C.

With `CC(C)(C)c1csc(N)n1`, the melting point is 101 °C. As for `COC(=O)c1cc(OCc2ccccc2)cc(OCc2ccccc2)c1`, the melting point lay within 67 to 70 °C. The result for `CNC(=O)Oc1ccc(C)c(C)c1` reads 79.5 °C; that for `CC(O)c1ccccc1C(F)(F)F` (stereo unspecified), 38 to 40 °C.

For the compound `Cc1cc(F)ccc1[N+](=O)[O-]`, the melting point stood at 20 °C.

In turn, `O=C(Cl)c1csc(-c2cccs2)n1` returned a melting point of 93 to 94 °C.

As for `CC(=O)c1cc(Cl)cc(Cl)c1O`, the melting point stood at 97 °C. Then `NNc1nccc(C(F)(F)F)n1`, with 100 to 101 °C; and `COCc1c(C(=O)OC(C)C)ncc2[nH]c3ccc(OCc4ccccc4)cc3c12`, with 150 °C; and `O=Nc1ccc(C(=O)OC2Cc3ccccc32)cc1` (stereo unspecified), with 119 °C.

As to `CS(=O)(=O)c1ccccc1S(=O)(=O)Cl`, the melting point fell in the range of 133 to 138 °C. Compound `O=C(Cl)c1cc(I)ccc1F` showed a melting point of 29 °C. Compound `O=C(Cl)C(=O)Cl` returned a melting point of -12 °C. With `Cc1ccc(C(c2ccc(C)o2)c2ccccc2Br)o1`, the melting point turned out to be 57 °C. Compound `N#Cc1cc(S(=O)(=O)Cl)ccc1F` returned a melting point of 69 °C. As to `CC(C)Nc1nc(N)nc(Cl)n1`, the melting point came out at 133 °C. Regarding `CCCCCCCCCCCCCC(=O)Cl`, the melting point was -1 °C. With `CCCCCCCCCCCCCCCCCCCCCCCO`, the melting point was 74 to 76 °C. On to `CSc1ccccc1C(=O)N(NC(=O)c1ccccc1)C(C)(C)C`, for which the melting point amounted to 196 °C. Compound `S=C=Nc1c(Cl)c(Cl)cc(Cl)c1Cl` gave a melting point of 88 to 90 °C. With `Cc1ncc([N+](=O)[O-])n1CCCN1C(=O)c2ccccc2C1=O`, the melting point was 168 to 169 °C.

On to `COc1nc2c(c(=O)n(C)c(=O)n2C)n1C`, for which the melting point turned out to be 176 °C.

Regarding `CC(=O)Oc1c(-c2cccc(-c3[nH]c4cc([N+](=O)[O-])ccc4c3OC(C)=O)c2)[nH]c2cc([N+](=O)[O-])ccc12`, the melting point stood at 304 °C.

`OC1Cc2ccccc2C1`: the melting point was found to be 70 °C. `Cc1ccc(N=Nc2ccccc2)cc1`: the melting point came to 71.5 °C. Regarding `CCC(=O)c1ccc(F)c(C(F)(F)F)c1`, the melting point was 32 °C.

As to `COC(=O)c1ccc(C)nc1`, the melting point was 34 to 37 °C. The compound `O=C(O)c1cc2cc(OC(F)(F)F)ccc2[nH]1` came in with a melting point of 204 to 207 °C. Turning to `N#Cc1ccc(Cl)nc1`, the melting point was determined as 118 °C. The compound `O=C(O)C1(C(F)(F)F)CC1` gave a melting point of 88 °C. In the case of `OCC1(O)OCC(O)C(O)C1O` (stereo unspecified), the melting point was 119 °C. The result for `COC(=O)C1CCCc2c1[nH]c1ccc(OC)cc21` (stereo unspecified) reads 92 °C; that for `Ic1cccc(Cn2cncn2)c1`, 53 to 55 °C; that for `O=C1CC(=O)CC(c2ccccc2)C1`, 188 °C.

With `O=C(Nc1nnc(-c2ccc(Cl)cc2)o1)c1cccc(C(F)(F)F)c1`, the melting point is 215 to 217 °C. As for `Clc1c(Cl)c(Cl)c2c(c1Cl)OC(c1ccccc1)(c1ccccc1)O2`, the melting point was determined as 153 °C. In turn, `CCOC(=O)c1cc(C)n(Cn2nc(C(=O)OCC)cc2C)n1` gave a melting point of 130 °C. The result for `CC(=O)OC1CC2C(C)C(=O)C3(C(O)CC4C(C)(C)CCC(OC(C)=O)C4(C)C13)C2O` (stereo unspecified) reads 246 °C. For `CC(=O)OC1CCC2(C)C(CCC3C2CCC2(C)C3CCC(=O)C2(C)OC(C)=O)C1` (stereo unspecified), the melting point was in the range of 195 to 207 °C.

`CC12CCC(C(=O)C1)C2(C)C` (stereo unspecified): the melting point amounted to 186 °C.

The compound `Cc1c(C(C)OC(=O)CCC(=O)O)oc2ccc(C3=CC(=O)OC3)cc12` (stereo unspecified) had a melting point of 144 °C. Regarding `CC(C)(Sc1cc(C(C)(C)C)c(O)c(C(C)(C)C)c1)Sc1cc(C(C)(C)C)c(O)c(C(C)(C)C)c1`, the melting point is 125 °C. As for `O=[N+]([O-])c1cc(F)c(Br)cc1F`, the melting point came out at 56 °C.

Compound `Clc1ccc(COC(Cn2ccnc2)c2ccc(Cl)cc2Cl)cc1` (stereo unspecified) displayed a melting point of 86.8 °C. Compound `Cc1cc(N)c(N)cc1Cl` came in with a melting point of 137 to 140 °C. As to `N#CCC(N)=S`, the melting point was in the range of 113 to 119 °C. Then `Cc1ccc(N=C=O)cc1[N+](=O)[O-]`, with 51 °C; and `O=Cc1ccc(Sc2ccccn2)o1`, with 65 to 67 °C; and `CSc1ccc(-n2c(-c3ccccc3)cc(C(=O)O)c2C)cc1`, with 202 to 203 °C.

In turn, `CC1(C)OC(C)(C(O)(c2cccc3ccccc23)c2cccc3ccccc23)CCC1C(=O)O` (stereo unspecified) showed a melting point of 210 to 211 °C. Then `N#CCc1ccccc1CC#N`, with 59 °C. Then `Cc1cc(C(=O)O)ccc1Br`, with 216 °C; and `CCc1cc2c(s1)N(C)C(=O)CN=C2c1ccccc1Cl`, with 119 °C. The result for `O=Cc1ccc(OCc2ccccc2)c(Cl)c1` reads 93 to 94 °C; that for `CC(=O)c1ccnc(Cl)c1`, 36.5 to 39 °C. The compound `Cc1nc(-c2ccc(Br)s2)cs1` had a melting point of 78 to 79 °C.

For `COc1ccc([N+](=O)[O-])cc1C(=O)O`, the melting point amounted to 157 °C. The compound `CSc1nc(=O)[nH]c2c1CCCC2` yielded a melting point of 264 to 266 °C. The result for `Cc1cc2c(C#N)c3sc4ccccc4n3c(=O)c2c(C)n1` reads 287 °C; that for `Cc1cc(-c2ccccc2)n(N)c(=O)c1C#N`, 189 °C; that for `OC1CC(O)C(O)C(O)C1O` (stereo unspecified), 236 °C.

In turn, `Nc1ccc(/C=C\c2ccc(N)cc2)cc1` had a melting point of 121 °C. In turn, `OC1(C2(O)CCCCC2)CCCCC1` yielded a melting point of 127 °C.

For `Cc1cc(O)ccc1F`, the melting point stood at 32 °C. The result for `O=C(O)c1ccc(C(F)(F)F)nc1Cl` reads 120 to 122 °C; that for `Cc1ccccc1S(=O)(=O)Cl`, 10 °C. The compound `O=Cc1ccc(Oc2ccccn2)cc1` registered a melting point of 45 to 46 °C. Consider `Cc1sc(C2CCN(C(=O)OC(C)(C)C)CC2)nc1CC(=O)O`, for which the melting point was 48 to 50 °C. Turning to `CC(=O)Oc1ccc(C(c2ccc(OC(C)=O)cc2)c2ccccn2)cc1`, the melting point was 134 °C.

In turn, `COc1ccc(NC(=O)C(C(F)(F)F)C(F)(F)F)cc1` showed a melting point of 185 to 187 °C.

The compound `CC(C)(SC(=O)N1CCCCC1)c1ccccc1` registered a melting point of 39.1 °C. Regarding `O=C1CC[C@H]2CCc3ccccc3[C@@H]2O1`, the melting point lay within 138 to 141 °C.

Compound `CCCCCCCCCCCCCC(=O)Nc1ccccc1` had a melting point of 82 to 87 °C. Then `CC12CCC(C(CC(N)=O)C1=O)C2(C)C` (stereo unspecified), with 101 °C. Take `COC(=O)c1sc(C(C)(C)C)cc1N`: the melting point was 94 to 95 °C. Compound `O=C(CN1CCN(Cc2ccc3c(c2)OCO3)CC1)N1c2ccccc2Sc2ccccc21` came in with a melting point of 142 °C. Take `O=P(c1ccccc1)(c1ccccc1)C1C=C(c2ccc(Br)cc2)OC(c2ccc(Br)cc2)=C1`: the melting point lay in the range of 193 to 194 °C. In turn, `Cc1ccc2nc(C)cc(C)c2c1` gave a melting point of 68 °C. Compound `COC(=O)CCC(C)C1CCC2C3C(=O)CC4CC(=O)CCC4(C)C3CC(=O)C12C` (stereo unspecified) displayed a melting point of 242 to 243 °C. Then `CC(=O)c1sc(-c2ccc(C(C)(C)C)cc2)cc1N`, with 179 to 181 °C; and `O=[N+]([O-])c1ccc(C=Cc2ccc(C=Cc3ccc([N+](=O)[O-])cc3[N+](=O)[O-])cc2)c([N+](=O)[O-])c1`, with 294 °C; and `N#C/C(=C\c1ccc(Cl)cc1)c1nc(-c2cccc3ccccc23)cs1`, with 130 °C. Turning to `NNC(=O)c1cc2cc(OCc3ccccc3)ccc2[nH]1`, the melting point fell in the range of 219 to 221 °C. Take `O=C(O)C=Cc1c[nH]cn1`: the melting point is 225 °C. Take `CC(=O)n1c(C)c(C)c2ccccc21`: the melting point is 74 °C. In turn, `COc1ccc(C=CNNc2nc(C)cc(C)n2)cc1` returned a melting point of 179 to 182 °C. In turn, `N#Cc1c(C(F)(F)F)cc(-c2ccccc2)[nH]c1=O` returned a melting point of 301 to 303 °C. The result for `Brc1ccc(Oc2ccc(Br)c(Br)c2Br)c(Br)c1Br` reads 183 °C. Take `CC1=N[C@]2(c3ccccc3)Oc3c(c4ccccc4c4ccccc34)O[C@@H]2O1`: the melting point was 166 °C. The result for `N#Cc1ccc(C2CCCc3cncn32)cc1` (stereo unspecified) reads 117 °C.
